Measured values as given in patent US5948775A, “2- or 3-(substitutedaminoalkoxyphenyl)quinazolin-4-ones” (American Home Products Corporation, priority 1998, dated 1999).
Like-named read-outs stand apart in the source and are kept apart here.

Columns and labels:
Ishikawa cells = assay: Ishikawa Cell Alkaline Phosphatase Assay; assay type: cell-based; conditions: Homo sapiens, 48 h
Procedure: Ishikawa Cell Alkaline Phosphatase Assay
Cell Maintenance and Treatment:
Ishikawa cells were maintained in DMEM/F12 (50%:50%) containing phenol red+10% fetal bovine serum and the medium was supplemented with 2 mM Glutamax, 1% Pen/Strap and 1 mM sodium pyruvate. Five days prior to the beginning of each experiment (treatment of cells) the medium was changed to phenol red-free DMEM/F12+10% dextran coated charcoal stripped serum. On the day before treatment, cells were harvested using 0.5% trypsin/EDTA and plated at a density of 5×10^4 cells/well in 96-well tissue culture plates. […] Cells were treat for 48 h prior to assay. […] Sample population for at each dose was n=8.
Alkaline Phosphatase Assay:
At the end of 48 h the media is aspirated and cells are washed three times with phosphate buffered saline (PBS). 50 μL of lysis buffer (0.1 M Tris-HCl, pH 9.8, 0.2% Triton X-100) is added to each well. Plates are placed at -80° C. for a minimum of 15 minutes. Plates are thawed at 37° C. followed by the addition of 150 μL of 0.1 M Tris-HCl, pH 9.8, containing 4 mM para-nitrophenylphosphate (pNPP) to each well (final concentration, 3 mM pNPP).
Absorbance and slope calculations were made using the KineticCalc Application program (Bio-Tek Instruments, Inc., Winooski, Vt.). Results are expressed as the mean±S.D. of the rate of enzyme reaction (slope) averaged over the linear portion of the kinetic reaction curve (optical density readings every 5 minutes for 30 minutes absorbance reading).
A description of these methods is described by Holinka, C.

estrogen receptor = target: T1, estrogen receptor (Homo sapiens, UniProt P03372); assay: In vitro estrogen receptor binding assay (competition with [^3 H]-17-β-estradiol)
T1 construct: made in house; host or cells: Chinese Hamster Ovary (CHO) cells, ribosome-free cytosol
T1 sequence (P03372 1-595): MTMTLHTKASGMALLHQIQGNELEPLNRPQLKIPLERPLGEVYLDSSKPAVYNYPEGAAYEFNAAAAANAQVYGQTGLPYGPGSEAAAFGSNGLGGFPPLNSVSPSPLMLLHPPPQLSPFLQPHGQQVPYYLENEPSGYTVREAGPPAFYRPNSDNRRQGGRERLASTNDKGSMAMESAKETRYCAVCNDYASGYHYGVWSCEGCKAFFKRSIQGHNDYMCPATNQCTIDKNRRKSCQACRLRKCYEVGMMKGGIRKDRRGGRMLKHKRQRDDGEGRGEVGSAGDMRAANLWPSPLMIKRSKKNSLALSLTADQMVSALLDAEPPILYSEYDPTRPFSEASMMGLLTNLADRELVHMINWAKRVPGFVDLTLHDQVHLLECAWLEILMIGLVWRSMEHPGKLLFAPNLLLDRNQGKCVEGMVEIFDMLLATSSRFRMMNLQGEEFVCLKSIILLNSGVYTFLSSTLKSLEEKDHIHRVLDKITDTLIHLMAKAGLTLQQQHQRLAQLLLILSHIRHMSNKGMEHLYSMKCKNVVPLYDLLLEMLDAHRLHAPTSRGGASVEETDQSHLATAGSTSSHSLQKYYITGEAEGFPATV
Procedure: Cells were harvested by scraping the surface and then the cell suspension was placed on ice. […] The cytosol was then frozen and stored at -80° C. Protein concentration of the cytosol was estimated using the BCA assay with reference standard protein.
The plate was incubated at room temperature for 2.5 h. […] Samples were counted to 2% or 10 minutes, whichever occurs first. […] Also, wells containing radioactivity but no cytosol were processed with charcoal to estimate unremovable DPM of [^3 H]
For a description of these methods, see Hulme, E. C., ed. 1992. Receptor-Ligand Interactions: A Practical Approach. IRL Press, New York.(see especially chapter 8).

human estrogen receptor = target: T2, human estrogen receptor (Homo sapiens, UniProt P03372); assay: 2X VIT ERE Transfection Assay (luciferase, CHO cells stably transfected with human estrogen receptor); assay type: cell-based; conditions: 24 h
T2 construct: expressed in transfected cells
Procedure: 2X VIT ERE Transfection Assay
Cell Maintenance and Treatment
Chinese Hamster Ovary cells (CHO) which had been stably transfected with the human estrogen receptor were maintained in DMEM+10% fetal bovine serum (FBS). 48 h prior to treatment the growth medium was replaced with DMEM lacking phenol red+10% dextran coated charcoal stripped FBS (treatment medium). Cells were plated at a density of 5000 cells/well in 96-well plates containing 200 μL of medium/well.
Calcium Phosphate Transfection
Reporter DNA (Fromega plasmid pGL2 containing two tandem copies of the vitellogenin ERE in front of the minimal thymidine kinase promoter driving the luciferase gene) was combined with the β-galactosidase expression plasmid pCH110 (Pharmacia) and carrier DNA (pTZ18U) in the following ratio:
20 μg of DNA/1 mL of transfection solution
The DNA (20 μg) was dissolved in 500 μL of 250 mM sterile CaCl2 and added dropwise to 500 μL of 2X HeBS (0.28 M NaCl, 50 mM HEPES, 1.5 mM Na2 HPO4, pH 7.05) and incubated at room temperature for 20 minutes. 20 μL of this mixture was added to each well of cells and remained on the cells for 16 h. […] Each treatment condition was performed on 8 wells (n=8) which were incubated for 24 h prior to the luciferase assay.
After 24 h exposure to compounds, the media was removed and each well washed with 2X with 125 μL of PBS lacking Mg^++ and Ca^++. […] The luciferan substrate (Promega) was added in 100 μL aliquots to each well automatically by the luminometer and the light produced (relative light units) was read 10 seconds after addition.
To the remaining 5 μL of lysate 45 μL of PBS was added. […] The plates were analyzed on a Molecular Devices specrophotometric plate reader at 410 nm. […]
The luciferase data was generated as relative light units (RLUs) accumulated during a 10 second measurement and automatically transferred to a JMP (SAS Inc.) file where background RLUs were subtracted. […] The mean and standard deviations were determined from a n=8 for each treatment. […]

uterus = conditions: background statement; cited from earlier work
bone = conditions: background statement; cited from earlier work
[1] = Test articles at 10^-6 M, alone, percent of response related to 1 nM 17β-estradiol (control), read-out: % Activation
[2] = Competition With 17-β-estradiol (0.8 nM), CHO cell cytosol

Compound | activation at 1 µM (Ishikawa cells; [1]) | IC50 (estrogen receptor; read-out: IC50) | activation at 1 µM (human estrogen receptor) | IC50 (estrogen receptor; [2]) | effect on the uterus (uterus) | effect on bone (bone) | activation at 1 µM (Ishikawa cells)
C[C@]12CC[C@@H]3c4ccc(O)cc4CC[C@H]3[C@@H]1CC[C@@H]2O [17-β-estradiol, reference compound] | 100% | – | – | – | – | – | –
O=c1c2ccc(O)cc2nc(-c2ccc(O)cc2)n1-c1ccc(OCCN2CCCCC2)cc1 [Example 9, 7-Hydroxy-2-(4-hydroxy-phenyl)-3-{4-[2-(piperidin-1-yl)-ethoxy]-phenyl}-3H-quinazolin-4-one] | 0% | 6.5 µM | 72% | – | – | – | –
O=c1c2cccc(O)c2nc(-c2ccc(OCCN3CCCCC3)cc2)n1-c1ccc(O)cc1 [Example 16, 8-Hydroxy-3-(4-hydroxy-phenyl)-2-{4-[2-(piperidin-1-yl)-ethoxy]-phenyl}-3H-quinazolin-4-one] | 0% | – | 14% | Binding not detected at upper limit of assay | – | – | –
O=c1c2cccc(O)c2nc(-c2ccc(O)cc2)n1-c1ccc(OCCN2CCCCC2)cc1 [Example 21, 8-Hydroxy-2-(4-hydroxy-phenyl)-3-[4-(2-piperidin-1-yl-ethoxy)-phenyl]-3H-quinazolin-4-one] | 0% | – | 6% | Binding not detected at upper limit of assay | – | – | –
O=C(c1ccc(OCCN2CCCCC2)cc1)c1c(-c2ccc(O)cc2)sc2cc(O)ccc12 [Raloxifene] | 5% | – | – | – | stimulate uterine growth in animal models to a lesser degree than Tamoxifen | sparing bone | –
CC/C(=C(\c1ccccc1)c1ccc(OCCN(C)C)cc1)c1ccccc1 [Tamoxifen] | – | – | – | – | partial agonist effects in the uterus | increase bone mass | 0%
